The text below walks through data of PMC11638965, “Leveraging Dual-Ligase Recruitment to Enhance Protein Degradation via a Heterotrivalent Proteolysis Targeting Chimera” (Journal of the American Chemical Society, 2024).

pEC50: −log10 of the molar value. Where “and” joins values, the source holds several entries; their conditions need not be identical. Equal entries are not always repeated. Entries after “also recorded” stand apart in the source; their conditions may differ. Where two headings read alike, the source gives them in different places.

For one assay, the target named is T1, BRD3 (Homo sapiens, UniProt Q15059).
T1 construct: HiBiT, is appended to the N-terminus of endogenous BRD2, BRD3, and BRD4; endogenous in cells
T1 sequence (Q15059 whole entry): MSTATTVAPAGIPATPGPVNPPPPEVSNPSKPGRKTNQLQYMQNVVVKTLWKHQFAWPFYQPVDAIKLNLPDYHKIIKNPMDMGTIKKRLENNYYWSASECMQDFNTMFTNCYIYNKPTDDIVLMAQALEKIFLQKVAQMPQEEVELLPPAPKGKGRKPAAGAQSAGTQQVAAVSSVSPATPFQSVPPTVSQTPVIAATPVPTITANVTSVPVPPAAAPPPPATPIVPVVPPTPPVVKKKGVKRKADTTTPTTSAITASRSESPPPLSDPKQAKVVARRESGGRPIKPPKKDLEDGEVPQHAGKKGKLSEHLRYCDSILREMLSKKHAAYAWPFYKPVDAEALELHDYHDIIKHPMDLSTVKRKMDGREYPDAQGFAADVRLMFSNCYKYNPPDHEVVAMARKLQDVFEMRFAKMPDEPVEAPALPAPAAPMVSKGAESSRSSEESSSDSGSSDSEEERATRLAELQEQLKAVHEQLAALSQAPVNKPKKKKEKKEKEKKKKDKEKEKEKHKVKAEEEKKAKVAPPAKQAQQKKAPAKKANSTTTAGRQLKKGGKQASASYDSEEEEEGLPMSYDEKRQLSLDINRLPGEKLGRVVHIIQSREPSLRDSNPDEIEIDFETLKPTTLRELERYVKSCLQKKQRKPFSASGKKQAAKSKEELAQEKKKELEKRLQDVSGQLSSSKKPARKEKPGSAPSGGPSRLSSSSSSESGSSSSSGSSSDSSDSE
Briefly: Live cell kinetic HiBiT degradation assay, HiBiT-BRD3 HEK293 cells. Type of assay: cell-based. As to the method: (§1) HEK293 HiBiT-BRD2 (LgBiT stable), HEK293 HiBiT-BRD3 (LgBiT stable), and HEK293 HiBiT-BRD4 (LgBiT stable) were created using CRISPR/Cas9 to insert at HiBiT tag at the N-terminal genomic loci of BRD2, BRD3, or BRD4 in a cell line stably expressing LgBiT protein as described previously.[23]
(§2) For kinetic degradation experiments, HEK293 HiBiT-BRD2, 3, or 4 (LgBiT stable) cells and HEK293 HiBiT-BRD4 (LgBiT) CRBN KO and VHL KO cells were plated at 20,000 cells/well in DMEM +10% FBS in white 96-well tissue culture plates and allowed to adhere overnight. The next day, media was removed and 90 μL of prewarmed CO2-independent medium (Gibco) containing Endurazine (Promega) at a 1:100 dilution from stock was added. Plates were incubated at 37 °C for 3 h to allow luminescence to equilibrate. A threefold dilution series of each PROTAC at 10x the desired final concentration was prepared (with the amount of DMSO in each treatment condition kept constant). After luminescence equilibration, a preread luminescence measurement was taken (prior to compound addition) to allow for baseline normalization to account for possible plating differences. Cells were then treated with 10 μL of the prepared PROTAC dilution series (in triplicate or quadruplicate). Treated plates were placed in a GloMax Discover luminometer (Promega) prewarmed to 37 °C and luminescence measurements were obtained every 7 min for 24 h. Kinetic degradation plots were obtained by first normalizing time course luminescence readings in each well to the preread measurement, then to the average value of the DMSO only control at each time point. Data was analyzed using GraphPad Prism (version 8) and excel. Dmax values were identified as the lowest luminescence reading in each well. Rate constant values were calculated using a one phase exponential decay Y = (Y0-Plateau) e(K*^X) + Plateau using Prism (Y0 constrained to 1). Dmax 50 values were calculated by plotting Dmax as a function of concentration, then fitting plots using the following equation: [drawing 1] to determine IC50.
Background: HiBiT is a short tag that completes a luciferase, so light tracks the accessible tagged protein.

The target in another assay is BRD4 (Homo sapiens, UniProt O60885). In words: Live cell kinetic HiBiT degradation assay, HiBiT-BRD4 HEK293 cells (parental, CRBN KO, VHL KO). Type of assay: cell-based. The settings on record: for pEC50: HiBiT-BRD4 CRISPR knock-in HEK293 cells, live cell kinetic degradation, 24 h, read-out: Dmax 50 BRD4; for on-target BRD4 degradation activity (in words): parental, CRBN KO and VHL KO HiBiT-BRD4 HEK293 cells (Figure S5). As to the method:
as §1, §2
HiBiT-BRD4 (LgBiT stable) HEK293 cells (Promega) were used to generate both VHL KO HiBiT-BRD4 (LgBiT stable) and CRBN KO HiBiT-BRD4 (LgBiT stable) cell lines. For VHL, gRNAs targeting exon 1 ([…]) and exon 2 ([…]) and for CRBN, gRNAs targeting exon 3 ([…]) and exon 6 ([…]) were purchased from IDT DNA (Table 5). For each gRNA, tracrRNA/crRNA duplexes were formed by combining 10 μL of 100 μM Alt-R […] (IDT), 100 μM Alt-R crRNA (IDT) and heating at 95C for 5 min, then were allowed to cool to room temp for 20 min. RNPs were then formed by combining 75 pmol Cas9 (IDT) with 2.4 μL total of prepared tracrRNA/crRNA complex (1.2 μL for each gRNA targeting each exon). Cells were then trypsinized and resuspended at 10,000,000 cells/mL in 1 mL of Mirus Ingenio electroporation solution. Three μL of 100 μM electroporation enhancer (Mirus) was added, along with 3 μL of RNP solution. Cells were electroporated in 2 mm cuvettes using a BioRad system (190 V, 950 μF, infinite resistance) and were then plated in a T75 flask in full growth medium to allow for recovery. After recovery from electroporation, knockout pools were sorted for single cells in 96-well tissue culture treated plates. Clonal populations which expanded from single cells were then screened for loss of function of VHL by treating with MZ1, or loss of function of CRBN by treating with dBET6, using a HiBiT-BRD4 luminescent readout assay. Genomic DNA isolated from candidate clones was then PCR-amplified (Table of primers below), Gibson-assembled into a pF1A plasmid backbone, transformed into E. coli., and then Sanger sequenced to confirm presence of indels in the targeted exons. […] VHL exon 3 carried a 19 bp deletion on one allele, and a 1 bp insertion on the other allele, both occurring after the premature stop codon in exon 1.

For the next assay, the target named is T2, BRD2 (Homo sapiens, UniProt P25440).
T2 construct: HiBiT, is appended to the N-terminus of endogenous BRD2, BRD3, and BRD4; endogenous in cells
T2 sequence (P25440 whole entry): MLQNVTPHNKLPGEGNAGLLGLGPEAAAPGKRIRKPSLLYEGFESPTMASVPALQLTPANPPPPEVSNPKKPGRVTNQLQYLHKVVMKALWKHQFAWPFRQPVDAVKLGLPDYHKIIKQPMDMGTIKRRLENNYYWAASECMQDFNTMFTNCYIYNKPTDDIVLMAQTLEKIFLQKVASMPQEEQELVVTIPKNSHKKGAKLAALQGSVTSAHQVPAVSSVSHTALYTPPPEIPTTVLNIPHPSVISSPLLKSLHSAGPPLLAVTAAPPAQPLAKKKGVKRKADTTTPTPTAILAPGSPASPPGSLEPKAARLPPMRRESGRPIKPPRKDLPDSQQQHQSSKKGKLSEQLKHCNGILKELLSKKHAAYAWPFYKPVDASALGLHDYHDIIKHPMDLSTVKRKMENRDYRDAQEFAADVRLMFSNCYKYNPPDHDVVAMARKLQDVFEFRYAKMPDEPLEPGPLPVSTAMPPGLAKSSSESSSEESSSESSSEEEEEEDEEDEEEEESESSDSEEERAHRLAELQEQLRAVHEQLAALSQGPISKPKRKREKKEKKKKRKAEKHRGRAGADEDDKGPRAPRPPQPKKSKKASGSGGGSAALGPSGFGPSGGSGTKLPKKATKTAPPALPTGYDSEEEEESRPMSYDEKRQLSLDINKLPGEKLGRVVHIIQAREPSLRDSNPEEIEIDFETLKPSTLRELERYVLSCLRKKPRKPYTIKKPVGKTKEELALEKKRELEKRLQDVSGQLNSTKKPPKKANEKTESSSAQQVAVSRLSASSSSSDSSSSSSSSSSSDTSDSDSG
Briefly: Live cell kinetic HiBiT degradation assay, HiBiT-BRD2 HEK293 cells. The settings on record: HiBiT-BRD2 knock-in HEK293 cells. The class given is cell-based. As to the method: as §1, §2

Another assay relates to RKO WT cells. In words: cells. The class given is cell-based, human. To be noted: Homo sapiens. As to the method: RKO WT, VHL KO, CRBN KO and CRBN/VHL dKO cells were cultured in Dulbecco’s modified Eagle’s medium supplemented with 10% FCS and 1% penicillin–streptomycin. RKO CRBN KO and VHL KO were generated previously.[45] RKO CRBN/VHL dKO cells were generated by transiently expressing pSpCas9(BB)-2A-GFP (PX458) (Addgene 48138) loaded with a short guide RNA (sgRNA) targeting VHL (Fwd: […], Rev: […]) in RKO CRBN KO cells. Clones were single cell seeded and checked for VHL and CRBN double deletion via Western blot or PCR on genomic DNA (gDNA).
Cells were seeded in 96-well plates at a cell density of 3750 cells per well and treated for 3 days with DMSO or drug at ten √10 serial diluted concentrations. […] Cell viability was assessed using the CellTiter-Glo assay (CellTiter-Glo Luminescent Cell Viability Assay, Promega G7573) according to manufacturer instructions. Luminescence signal was measured on a Multilabel Plate Reader Platform Victor X3 model 2030 (PerkinElmer). Survival curves and EC50 values were determined using GraphPad Prism v.10.0.3 by fitting a nonlinear regression to the log10-transformed drug concentration and the relative viability after normalization of each data point to the mean luminescence of the lowest drug concentration.

Setting [1] is: 72 h, 500 pM to 10 μM, 3 days (Figure 10, Table S6), read-out: EC50 RKO WT.

With `Cc1ncsc1-c1ccc(CNC(=O)[C@@H]2C[C@@H](O)CN2C(=O)[C@@H](NC(=O)COCC(C)(COCCOCCOCCOC(=O)C[C@@H]2N=C(c3ccc(Cl)cc3)c3c(sc(C)c3C)-n3c(C)nnc32)COCCOCCOCCN2CCN(c3cccc4c3C(=O)N(C3CCC(=O)NC3=O)C4=O)CC2)C(C)(C)C)cc1` (mixture of isomers) [AB3029 (31), (17S)-11-((2-(2-(2-(4-(2-(2,6-dioxopiperidin-3-yl)-1,3-dioxoisoindolin-4-yl)piperazin-1-yl)ethoxy)ethoxy)ethoxy)methyl)-17-((2S,4R)-4-hydroxy-2-((4-(4-methylthiazol-5-yl)benzyl)carbamoyl)pyrrolidine-1-carbonyl)-11,18,18-trimethyl-15-oxo-3,6,9,13-tetraoxa-16-azanonadecyl 2-((S)-4-(4-chlorophenyl)-2,3,9-trimethyl-6H-thieno[3,2-f][1,2,4]triazolo[4,3-a][1,4]diazepin-6-yl)acetate], the DC50 on BRD3 (HiBiT-BRD3 CRISPR knock-in HEK293 cells, live cell kinetic degradation, 24 h, read-out: Dmax 50 BRD3) was determined as 0.0062 µM. Moreover, the “λmax BRD3 (degradation rate)” value at BRD3 (HiBiT-BRD3 knock-in HEK293 cells) is 2.36 h⁻¹. Also, the pEC50 is 7.82 on BRD4 and 5.99 in the assay on RKO WT cells (WT RKO, 316 pM to 10 μM, n = 3 (Table S4), read-out: EC50 RKO). At BRD4 (HiBiT-BRD4 knock-in HEK293 cells), the “λmax BRD4 (degradation rate)” value turned out to be 1.99 h⁻¹. At BRD2, the “λmax BRD2 (degradation rate)” value was 1.90 h⁻¹ and 1.9 h⁻¹.
The term Dmax denotes the largest share of the target that was removed. Take `Cc1ncsc1-c1ccc(CNC(=O)[C@@H]2C[C@@H](O)CN2C(=O)[C@@H](NC(=O)COCC(COCCOCCOCCNc2cc3c(cc2F)C(=O)N(C2CCC(=O)NC2=O)C3=O)(COCCOCCOCCOC(=O)C[C@@H]2N=C(c3ccc(Cl)cc3)c3c(sc(C)c3C)-n3c(C)nnc32)COCCOCCOCCOC(=O)C[C@@H]2N=C(c3ccc(Cl)cc3)c3c(sc(C)c3C)-n3c(C)nnc32)C(C)(C)C)cc1` (mixture of isomers) [AB3124 (86)]: the pEC50 at BRD4 was 8.96; with RKO WT cells (72 h, 316 pM to 10 μM, 3 days, n = 3 (Figures 5 and 8C, Table S5), read-out: EC50 RKO WT), 7.48. For the same compound, on BRD4 (HiBiT-BRD4 HEK293 cells), the “treatment concentrations with observable hook-effect” value was not below 333 nM. Moreover, at BRD4 (HiBiT-BRD4 HEK293 cells (Figure S4)), the “BRD4 degradation rate (in words)” value is listed as “remarkably slow compared to the rapid degradation mediated by 27”. Also, the Dmax at BRD4 (HiBiT-BRD4 HEK293 cells, read-out: final Dmax less than for 26 and 27) is more than 10%.
In the case of `Cc1ncsc1-c1ccc([C@H](C)NC(=O)[C@@H]2C[C@H](O)CN2C(=O)[C@@H](NC(=O)COCC(C)(COCCOCCOCCNc2cc3c(cc2F)C(=O)N(C2CCC(=O)NC2=O)C3=O)COCCOCCOCCOC(=O)C[C@@H]2N=C(c3ccc(Cl)cc3)c3c(sc(C)c3C)-n3c(C)nnc32)C(C)(C)C)cc1` (mixture of isomers) [cis-AB3067 (94), (17S)-11-((2-(2-(2-((2-(2,6-dioxopiperidin-3-yl)-6-fluoro-1,3-dioxoisoindolin-5-yl)amino)ethoxy)ethoxy)ethoxy)methyl)-17-((2S,4S)-4-hydroxy-2-(((S)-1-(4-(4-methylthiazol-5-yl)phenyl)ethyl)carbamoyl)pyrrolidine-1-carbonyl)-11,18,18-trimethyl-15-oxo-3,6,9,13-tetraoxa-16-azanonadecyl 2-((S)-4-(4-chlorophenyl)-2,3,9-trimethyl-6H-thieno[3,2-f][1,2,4]triazolo[4,3-a][1,4]diazepin-6-yl)acetate], at BRD4 (listed as 94), the “on-target BRD4 degradation activity (in words)” value is “inactive in CRBN KO cells; also recorded: increase in degradation potency relative to 27 in both parental and VHL KO cells”. The pEC50 with RKO WT cells (setting [1]) is 7.32.
On to `Cc1ncsc1-c1ccc([C@H](C)NC(=O)[C@@H]2C[C@H](O)CN2C(=O)[C@@H](NC(=O)COCC(C)(COCCOCCOCCNc2cc3c(cc2F)C(=O)N(C2CCC(=O)N(C)C2=O)C3=O)COCCOCCOCCOC(=O)C[C@@H]2N=C(c3ccc(Cl)cc3)c3c(sc(C)c3C)-n3c(C)nnc32)C(C)(C)C)cc1` (mixture of isomers) [neg-cis-AB3067 (95), (17S)-11-((2-(2-(2-((6-fluoro-2-(1-methyl-2,6-dioxopiperidin-3-yl)-1,3-dioxoisoindolin-5-yl)amino)ethoxy)ethoxy)ethoxy)methyl)-17-((2S,4S)-4-hydroxy-2-(((S)-1-(4-(4-methylthiazol-5-yl)phenyl)ethyl)carbamoyl)pyrrolidine-1-carbonyl)-11,18,18-trimethyl-15-oxo-3,6,9,13-tetraoxa-16-azanonadecyl 2-((S)-4-(4-chlorophenyl)-2,3,9-trimethyl-6H-thieno[3,2-f][1,2,4]triazolo[4,3-a][1,4]diazepin-6-yl)acetate], for which, on BRD4, the “on-target BRD4 degradation activity (in words)” value is “no degradation of BRD4 in any of the cell lines”. The pEC50 in the assay on RKO WT cells (setting [1]) is 6.23; with RKO WT cells (RKO, span over RKO WT, CRBN KO, VHL KO and CRBN/VHL dKO (Figure 10), read-out: EC50s in each WT, KO and dKO RKO cell line) it was 6.18 to 6.28.
